Data from ChEMBL document CHEMBL1142118, “Halogenated monoterpene aldehydes from the South African marine alga Plocamium corallorhiza” (J Nat Prod, 2007).
pIC50: −log10 of the molar value.

Assay: Cytotoxicity against WHCO1 cells after 48 hrs by MTT assay
Type: cell-based
Settings: Homo sapiens, WHCO1, 48 h

Compound	pIC50
C=C(C)C(Br)CC(Br)/C(C)=C/C=O (configuration not stated)	5.12
CC(/C=C/C(Cl)C(C)(Cl)CBr)=C\C=O (configuration not stated)	4.19
